Experiments:
[1] = Solubility of the compound in 10% DMSO; assay type: physicochemical
Kallikrein-5 [2] = biological target: T1, Kallikrein-5 (Homo sapiens, UniProt Q9Y337); test: Inhibition of human recombinant KLK5 expressed in insect cell/baculovirus using Abz-KLYSSKQ-EDDnp as substrate by FRET analysis
T1 sequence (Q9Y337 whole entry): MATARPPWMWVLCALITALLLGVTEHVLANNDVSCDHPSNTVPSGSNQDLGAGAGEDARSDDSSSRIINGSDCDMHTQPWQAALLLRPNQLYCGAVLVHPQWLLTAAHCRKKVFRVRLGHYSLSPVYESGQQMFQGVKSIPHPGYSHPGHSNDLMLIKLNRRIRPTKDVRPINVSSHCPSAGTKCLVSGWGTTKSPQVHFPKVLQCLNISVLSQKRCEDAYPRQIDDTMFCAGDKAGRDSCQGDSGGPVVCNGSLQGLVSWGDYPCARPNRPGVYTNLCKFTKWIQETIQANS

Kallikrein-7 [3] = biological target: T2, Kallikrein-7 (Homo sapiens, UniProt P49862); test: Inhibition of human recombinant KLK7 expressed in insect cell/baculovirus using Abz-KLYSSKQ-EDDnp as substrate by FRET analysis
Kallikrein-7 [4] = biological target: T2, Kallikrein-7; test: Competitive inhibition of recombinant human KLK7 expressed in insect cell/baculovirus using Abz-KLYSSKQ-EDDnp as substrate by Dixon plot analysis
Kallikrein-5 [5] = biological target: T1, Kallikrein-5; test: Competitive inhibition of human KLK5 expressed in insect cell/baculovirus using Abz-KLYSSKQ-EDDnp as substrate by Dixon plot analysis
[6] = Solubility of the compound in aqueous buffer; assay type: physicochemical

T2 sequence (P49862 whole entry): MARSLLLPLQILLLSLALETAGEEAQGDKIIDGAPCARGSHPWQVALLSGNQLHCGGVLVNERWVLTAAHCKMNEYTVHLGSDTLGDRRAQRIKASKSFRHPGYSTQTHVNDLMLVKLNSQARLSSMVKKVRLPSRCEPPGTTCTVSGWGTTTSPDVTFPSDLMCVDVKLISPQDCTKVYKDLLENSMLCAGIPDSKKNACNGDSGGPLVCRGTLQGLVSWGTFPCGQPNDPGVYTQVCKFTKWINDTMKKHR

Row | Compound | solubility [1] | IC50 (Kallikrein-5 [2]) [µM] | IC50 (Kallikrein-7 [3]) [µM] | Ki (Kallikrein-7 [4]) [µM] | Ki (Kallikrein-5 [5]) [µM] | solubility [6]
1 | O=C(N[C@@H]1CO[C@H]2[C@@H]1OC[C@H]2OCc1ccccc1)/C(=C/c1cc2ccccc2s1)NC(=O)c1ccccc1 | Insoluble | – | – | – | – | –
2 | O=C(N[C@@H]1CO[C@H]2[C@@H]1OC[C@H]2OCc1ccccc1)/C(=C/c1ccc2ccccc2c1)NC(=O)c1ccccc1 | Insoluble | – | – | – | – | –
3 | O=C(N[C@@H]1CO[C@H]2[C@@H]1OC[C@H]2OCc1ccccc1)/C(=C/c1cc2ccccc2o1)NC(=O)c1ccccc1 | Insoluble | – | – | – | – | –
4 | O=C(N[C@@H]1CO[C@H]2[C@@H]1OC[C@H]2OCc1ccccc1)/C(=C/c1cccs1)NC(=O)c1ccccc1 (stereo in doubt) | – | 99.2 | 13.3 | 1.8 | 70.7 | soluble
5 | O=C(N[C@@H]1CO[C@H]2[C@@H]1OC[C@H]2OCc1ccccc1)/C(=C/c1ccc2c(c1)OCO2)NC(=O)c1ccccc1 (stereo in doubt) | – | > 1000 | 205 | 80.3 | 357 | soluble
6 | O=C(N[C@@H]1CO[C@H]2[C@@H]1OC[C@H]2OCc1ccccc1)/C(=C/c1cccnc1)NC(=O)c1ccccc1 (stereo in doubt) | – | 324 | 196 | 75.1 | 200 | soluble
7 | O=C(N[C@@H]1CO[C@H]2[C@@H]1OC[C@H]2OCc1ccccc1)/C(=C/c1ccco1)NC(=O)c1ccccc1 (stereo in doubt) | – | 99.1 | 16.3 | 3 | 70.4 | soluble
8 | CC(=O)N/C(=C\c1cccs1)C(=O)N[C@@H]1CO[C@H]2[C@@H]1OC[C@H]2OCc1ccccc1 (stereo in doubt) | – | 101 | 161 | 77.4 | 71.9 | soluble
9 | O=C(N[C@@H]1CO[C@H]2[C@@H]1OC[C@H]2OCc1ccccc1)/C(=C/c1c[nH]c2ccccc12)NC(=O)c1ccccc1 (stereo in doubt) | Insoluble | – | – | – | – | –

Next, values leading:

Row | solubility [1] | IC50 (Kallikrein-5 [2]) [µM] | IC50 (Kallikrein-7 [3]) [µM] | Ki (Kallikrein-7 [4]) [µM] | Ki (Kallikrein-5 [5]) [µM] | solubility [6] | Compound
10 | Insoluble | – | – | – | – | – | O=C(N[C@@H]1CO[C@H]2[C@@H]1OC[C@H]2OCc1ccccc1)/C(=C/c1ccccc1)NC(=O)c1ccccc1
11 | Insoluble | – | – | – | – | – | O=C(N[C@@H]1CO[C@H]2[C@@H]1OC[C@H]2OCc1ccccc1)/C(=C/c1ccc(F)cc1)NC(=O)c1ccccc1 (stereo in doubt)
12 | Insoluble | – | – | – | – | – | O=C(N[C@@H]1CO[C@H]2[C@@H]1OC[C@H]2OCc1ccccc1)/C(=C/c1ccc(Cl)cc1)NC(=O)c1ccccc1 (stereo in doubt)
13 | Insoluble | – | – | – | – | – | O=C(N[C@@H]1CO[C@H]2[C@@H]1OC[C@H]2OCc1ccccc1)/C(=C/c1ccc(Br)cc1)NC(=O)c1ccccc1 (stereo in doubt)
14 | Insoluble | – | – | – | – | – | O=C(N[C@@H]1CO[C@H]2[C@@H]1OC[C@H]2OCc1ccccc1)/C(=C/c1ccc(C(F)(F)F)cc1)NC(=O)c1ccccc1 (stereo in doubt)
15 | Insoluble | – | – | – | – | – | COc1ccc(/C=C(\NC(=O)c2ccccc2)C(=O)N[C@@H]2CO[C@H]3[C@@H]2OC[C@H]3OCc2ccccc2)cc1 (stereo in doubt)
